Results on 3 compounds are retold here after ChEMBL document CHEMBL1128964, “Synthesis and analgesic activity of Epibatidine analogues” (Bioorg Med Chem Lett, 1996).

In data set [1] the test system is Mus musculus. Kind of data set: Compound was tested for analgesic activity in mice after intraperitoneal administration at a dose of 10 ug/kg; less potent. The class given is functional, organism-based.
In data set [2] the test system is Mus musculus. Kind of data set: Compound was tested for analgesic activity in mice after intraperitoneal administration at a dose of 10 ug/kg; Significant. In kind it is functional, organism-based.
Data set [3] is described as follows: Lethal dose determined in Mice. In kind it is toxicity. As to conditions: mouse, in vivo.
Data set [4] relates to Mus musculus. The data set can be described thus: Dose of compound that caused analgesic activity in mice after intraperitoneal administration. The class given is functional.

Calls of active or inactive are those of the source. The rule behind the calls is not given here.

Usually LD50 stands for the dose expected to kill half of the subjects tested.

Turning to `Clc1ccc(C2CCNC2)cn1` (centres undefined), the Activity entry in data set [1] is reported as “less potent”. Consider `Clc1ccc(C2CC3CCC2N3)cn1` (racemic), for which, in data set [2], the outcome was Active. In the case of `Clc1ccc(C2CC3CCCC2N3)cn1` (centres undefined) [HOMOEPIBATIDINE], in data set [3], the median lethal dose (LD50) turned out to be 10 mg/kg. The compound also had a Dose in data set [4] of 0.04 mg/kg.
